Measured values published in paper PMC8038316 (International Journal of Molecular Sciences, 2021).

Assays:
[1] = target: T1, cytochrome bc1 complex (complex III; decylubiquinol:Cyt c reductase, EC 1.10.2.2) (Pyricularia grisea, UniProt Q85KP9); assay: biochemical; details: read-out: % inhibition at 50 μM
T1 construct: gene cytb

[2] = target: T2, succinate dehydrogenase (SDH; succinate:quinone oxidoreductase, SQR, EC 1.3.5.1; complex II) (Pyricularia oryzae, UniProt A0ABQ8NN34+G4N2P5+G4NB04); assay: biochemical
T2 construct: gene SDH2

Row | Compound | inhibition at 50 µM [1] [%] | inhibition at 400 µM ([2]; read-out: % inhibition at 400 μM) [%] | inhibition at 40 µM ([2]; read-out: % inhibition at 40 μM) [%]
1 | CO/C=C(/C(=O)OC)c1ccccc1Oc1cc(Oc2ccccc2C#N)ncn1 [compound 2, azoxystrobin] | 61 ± 10 | – | –
2 | CO/C=C(/C(=O)OC)c1ccccc1COc1cccc(NC(=O)c2ccccc2NC(C)=O)c1 [11b] | 58 ± 18 | ~23 | –
3 | Cn1cc(C(=O)Nc2ccccc2-c2cc(F)c(F)c(F)c2)c(C(F)F)n1 [compound 6, fluxapyroxad] | – | – | > 90
